These results are taken from US9908886B2 (Agency for Science, Technology and Research, priority 2012, dated 2018).

As a reminder, the IC50 is the point on the concentration scale where inhibition reaches its midpoint.

The test system of one experiment is D1.1 cells. The experiment in a line: Cell cytotoxicity assay (CellTiter-Glo). The experiment is classed as cell-based. The protocol:
(§1) Cancer cell lines, MV-4-11 (leukemia), P116.c139 (acute T cell leukemia) and D1.1 (acute T cell leukemia), were purchased from ATCC and cultured according to supplier's recommendations. K562 cells (myelogenous leukemia) over-expressing eIF4E, were also used for the cytotoxicity assay. For cells treated for 48 hours, 5000 cells were seeded in 70 μl of growth medium in black, flat-bottom 96-well plate. For cells treated for six days, 1000 cells were seeded in 70 μl of growth medium in black, flat-bottom 96-well plate. […] 50 μl of the diluted compounds was added to the cells and incubated at 37° C. in 5% CO2. After 48 hours or six days treatment, cell viability was determined by CellTiter-Glo Luminescent Cell Viability Assay (Promega, Madison, Wis.). 120 μl of the reagent was added to the cells and luminescence was measured using Tecan Safire Reader. Data was analysed with Graphpad Prism software and the figures represented indicate the half maximal inhibitory concentration (IC50). Error bars denote standard deviation (SD).
A general note: In ATP-based viability assays light output follows the ATP content of the culture.

In experiment [1] the test system is K562 cells over-expressing eIF4E. The experiment is described as follows: Cell cytotoxicity assay (CellTiter-Glo). The experiment is classed as cell-based. The conditions noted are these: for change of IC50 with treatment duration, K562 cells over-expressing eIF4E: 48 hours extended to 6 days. Here is the method:
as §1

The test system of the next experiment is MV-4-11 cells. The experiment is described as follows: Cell cytotoxicity assay (CellTiter-Glo). Format: cell-based. The protocol: as §1
A further experiment concerns P116.c139 cells. The experiment in a line: Cell cytotoxicity assay (CellTiter-Glo). Format: cell-based. The protocol:
as §1

Experiment [2] has as its system CD34+ BC-CML primary cells. The settings on record: background section; including cells carrying T315I mutation; cited from earlier work.
The test system of experiment [3] is eIF4E phosphorylation in BC GMPs. The settings on record: background section; cited from earlier work.
The test system of experiment [4] is patient-derived BC cells in NSG mice. The conditions noted are these: in vivo treatment for three consecutive weeks; CGP57380 40 mg/kg/d, dasatinib 5 mg/kg/d; background section; cited from earlier work.
Experiment [5] deals with nuclear beta-catenin in BC-CML cells. The settings on record: background section; cited from earlier work.
The subject of another experiment is BC CD34+ CML cells. The settings on record: in vitro treatment of the cells; background section; cited from earlier work.
For experiment [6], the system named is TNF production by macrophage. The conditions noted are these: TLR agonist stimulation; literature; cited from earlier work.
Another experiment concerns the target MNK1 (Homo sapiens, UniProt Q9BUB5). The experiment in a line: In vitro MNK kinase assay (Caliper LabChip mobility shift). The experiment is classed as biochemical. The settings on record: enzymatic, 1.2 mM ATP; read-out: IC50 Mnk1.
For another experiment, the target named is MNK2 (Homo sapiens (Human), UniProt Q9HBH9). The description is as above. The conditions noted are these: enzymatic, 250 μM ATP; read-out: IC50 Mnk2. Format: biochemical.
Experiment [7] has as its system eIF4E phosphorylation in K562 cells. The experiment in a line: Western blot of eIF4E phosphorylation in BC-CML cell line. Format: cell-based. The conditions noted are these: various concentrations, 24 h. The protocol:
(§2) K562 cell line was obtained from the ATCC, and grown in RPMI supplemented with 10% FCS, L-glutamine, and penicillin/streptomycin.
(§3) Exponentially growing cells were plated at 2×10^5 cells/ml, and whole cell lysate processed for western blot analysis using antibodies recognizing eIF4E, phospho-eIF4E (Cell signaling Technology),
(In general: Immunoblotting shows a protein as a band on a membrane.)

Experiment [8] deals with CD34+ BC-CML primary cells. The experiment in a line: Serial replating assay. Format: cell-based, human. The conditions noted are these: for serial replating efficiency of CD34+ BC cells: increasing dose, 48 hr treatment, compared to DMSO. From the text: (§4) Cord Blood (CB) samples were purchased from the Singapore Cord Blood bank. CML samples were the Singapore General Hospital after signed informed consent under local IRB-approved procedures. MNCs were obtained using Ficoll separation, and CD34^+ cells selected by immunomagnetic beads (Miltenyi Biotech, Germany).
CD34-enriched CB and BC cells were thawed and allowed to recover overnight in serum-free StemPro media (Invitrogen, Carlsbad, Calif.), supplemented with human growth factors and 1× nutrient supplement (Invitrogen). Cells were then subjected to drug treatment for 48 hr, harvested, washed, and seeded in methycellulose (H4434, […] Technologies, Canada). Colonies were enumerated after 2 weeks, individually picked, and replated in fresh methylcellulose in a 96-well format, and counted at 2 weeks. Three rounds of serial replating (representing>8 weeks in culture) were performed.

Experiment [9] relates to BCR-ABL activity (phosphorylation of CrKl) in K562 cells. The experiment in a line: Western blot of CrKl phosphorylation in K562 cells. Format: cell-based. The protocol: as §2, §3
Experiment [10] has as its system nuclear beta-catenin in BC-CML cells. The experiment in a line: Immunofluorescence analysis of nuclear active beta-catenin. The experiment is classed as cell-based, human.
Description: as §4
Cells (1×10^5) were cytospun onto glass slides, fixed with 4% paraformaldehye, and stained with mouse monoclonal antibodies against activated β-catenin (clone 8E7, Millipore, UK), or rabbit monoclonal antibodies against phospho-eIF4E S209 (EP2151Y, Abeam, UK). Slides were then stained with either PE-conjugated anti-mouse or FITC-conjugated anti-rabbit antibodies. Images were obtained with the use of a fluorescence microscope (Olympus IX71S1F3) at 40× magnification.

Each structure is given as a SMILES string. Entries after “also recorded” stand apart in the source; their conditions may differ. Read-outs that look alike come from different tables or passages of the source. Some results are limits rather than exact numbers.

Sequence of MNK2 (Q9HBH9 84-388): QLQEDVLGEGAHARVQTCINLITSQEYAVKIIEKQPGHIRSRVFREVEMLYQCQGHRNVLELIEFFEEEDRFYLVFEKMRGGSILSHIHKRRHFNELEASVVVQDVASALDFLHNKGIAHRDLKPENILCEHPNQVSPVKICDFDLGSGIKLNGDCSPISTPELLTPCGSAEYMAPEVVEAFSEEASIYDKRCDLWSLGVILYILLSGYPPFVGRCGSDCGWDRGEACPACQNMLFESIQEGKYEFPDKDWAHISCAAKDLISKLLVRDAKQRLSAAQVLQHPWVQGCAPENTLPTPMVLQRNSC

In the case of `CC(=O)C1=C(O)C=C2Oc3c(C(N)=O)c(O)cc(O)c3[C@]2(C)C1=O` [Cercosporamide, reference compound], the IC50 with D1.1 cells (48 hours, read-out: IC50 after 48 hours of treatment, D1.1) is 20.2 µM; in the experiment with D1.1 cells (6 days, read-out: IC50 after 6 days of treatment, D1.1), 17.3 µM; in [1] (48 hours, read-out: IC50 after 48 hours of treatment, K562) it was greater than 50 µM; in experiment [1] (6 days, read-out: IC50 after 6 days of treatment, K562), 4.3 µM; in the experiment on MV-4-11 cells (48 hours, read-out: IC50 after 48 hours of treatment, MV-4-11), greater than 50 µM; with MV-4-11 cells (6 days, read-out: IC50 after 6 days of treatment, MV-4-11), 4 µM. Moreover, the IC50 with P116.c139 cells (48 hours, read-out: IC50 after 48 hours of treatment, P116.c139) is greater than 50 µM; in the experiment on P116.c139 cells (6 days, read-out: IC50 after 6 days of treatment, P116.c139) it was 4.9 µM.

As to `Cc1nc(Nc2ncc(C(=O)Nc3c(C)cccc3Cl)s2)cc(N2CCN(CCO)CC2)n1` [dasatinib], the “ability of CD34+ BC cells to serially replate for more than 8 weeks in methylcellulose” value (shortened to “ability of CD34+ BC cells”) in experiment [2] was “only partially impaired”. In addition, the “eIF4E phosphorylation in BC GMPs” value in [3] is “not”. Moreover, the “serial transplantation of BC cells in NSG mice at 16 weeks” value in experiment [4] is on record as “not”.

For the compound `Cc1ccc(NC(=O)c2ccc(CN3CCN(C)CC3)cc2)cc1Nc1nccc(-c2cccnc2)n1` [imatinib], in [2], the “ability of CD34+ BC cells” value was “only partially impaired”. For the same compound, in experiment [3], the “eIF4E phosphorylation in BC GMPs” value is on record as “not”.

In the case of `Nc1ncnc2n[nH]c(Nc3ccc(F)cc3)c12` [CGP57380], in [5], the “accumulation of active nuclear beta-catenin in BC GMPs” value is “preventes accumulation of active nuclear beta-catenin”. In [2], the “ability of CD34+ BC cells” value is on record as “impaired the ability of CD34+ BC cells”. Also, the “eIF4E phosphorylation in BC GMPs” value in experiment [3] is “inhibited eIF4E phosphorylation”. In the experiment with BC CD34+ CML cells, the “ability of BC CD34+ CML cells to engraft NSG mice” value is “retarded their ability to engraft NSG mice”. Besides, the “serial transplantation of BC cells in NSG mice at 16 weeks” value in experiment [4] was “prevented BC cells from serially transplanting NSG mice”. In experiment [6], the “production / release of TNF by macrophage” value is “inhibited by MNK kinases inhibitor CGP57380 in a dose dependant fashion; also recorded: inhibits the release of TNF alpha by macrophage”.

For the compound `CN1CCN(C(=O)c2ccc(-c3cn4c(-c5ccc(O)cc5)cnc4cn3)cc2)CC1` [Example 1, (4-(3-(4-hydroxyphenyl)imidazo[1,2-a]pyrazin-6-yl)phenyl)(4-methylpiperazin-1-yl)methanone], the IC50 at MNK1 and on MNK2 was less than 0.1 µM in each case. In addition, the eIF4E phosphorylation entry in [7] was “prevent eIF4E phosphorylation”. The “serial replating efficiency of CD34+ BC cells” value in experiment [8] is listed as “retards the serial replating efficiency”.

As for `N#Cc1ccc(-c2cnc3ccc(-c4ccc(C(=O)N5CCOCC5)cc4)nn23)cc1` [Example 62, 4-(6-(4-(morpholine-4-carbonyl)phenyl)imidazo[1,2-b]pyridazin-3-yl)benzonitrile], the IC50 at MNK1 and on MNK2 was less than 0.1 µM throughout. Besides, in experiment [1], the “change of IC50 with treatment duration, K562 cells over-expressing eIF4E” value (“change … K562 cells over-expressing eIF4E” for short) was “reduced by more than half”. Besides, the eIF4E phosphorylation result in experiment [7] is recorded as “decrease in eIF4E phosphorylation; also recorded: prevent eIF4E phosphorylation”. Further, the “BCR-ABL activity (phosphorylation of CrKl)” value in experiment [9] was “decrease in BCR-ABL activity”. Further, the nuclear beta-catenin accumulation result in experiment [10] is recorded as “decrease in nuclear beta-catenin accumulation”.

With `O=C(c1ccc(-c2cn3c(-c4ccc(O)cc4)cnc3cn2)cc1)N1CCOCC1` [Example 2, (4-(3-(4-hydroxyphenyl)imidazo[1,2-a]pyrazin-6-yl)phenyl)(morpholino)methanone], the IC50 at MNK1 and on MNK2 was less than 1 µM each time. Also, the eIF4E phosphorylation result in experiment [7] was “prevent eIF4E phosphorylation”. For the same compound, in experiment [8] (at 10.0 μM and 20.0), the “ability of BC cells to serial replate” value was “potently impaired the ability of BC cells to serial replate”. In addition, in experiment [8], the “serial replating efficiency of CD34+ BC cells” value is “retards serial replating efficiency”.

Regarding `CN1CCN(C2CCN(C(=O)c3ccc(-c4ccc5ncc(-c6ccc(C#N)cc6)n5c4)cc3)CC2)CC1` [Example 133, 4-(6-(4-(4(4-methylpiperazin-1-yl)piperidine-1-carbonyl)phenyl)imidazo[1,2-a]pyridin-3-yl)benzonitrile], the 50% inhibitory concentration (IC50) at MNK1 and on MNK2 was less than 0.1 µM each time. Also, the “change of IC50 with treatment duration, D1.1 cells” value in the experiment with D1.1 cells (48 hours extended to 6 days) is “not influenced by the treatment duration”. Also, the “change … K562 cells over-expressing eIF4E” value in experiment [1] is on record as “not influenced by the treatment duration”. Further, the “change of IC50 with treatment duration, P116.c139 cells” value in the experiment on P116.c139 cells (48 hours extended to 6 days) is “decrease the IC50 by more than half-fold”.

As for `CN1CCN(C(=O)c2ccc(-c3ccn4ncc(-c5ccc(C#N)cc5)c4n3)cc2)CC1` [Example 176, 4-(5-(4-(4-methylpiperazine-1-carbonyl)phenyl)pyrazolo[1,5-a]pyrimidin-3-yl)benzonitrile], the IC50 at MNK1 and at MNK2 was less than 0.1 µM each time. The “change … K562 cells over-expressing eIF4E” value in experiment [1] was “reduced by more than half”. In experiment [7], the eIF4E phosphorylation result is “decrease in eIF4E phosphorylation; also recorded: prevent eIF4E phosphorylation”. Besides, in experiment [9], the “BCR-ABL activity (phosphorylation of CrKl)” value is reported as “decrease in BCR-ABL activity”. Moreover, in experiment [10], the nuclear beta-catenin accumulation result is “decrease in nuclear beta-catenin accumulation”.
